Measured values: patent US12173018B2, “Penicillin-binding protein inhibitors” (priority 2018, dated 2024)
≈ marks a conversion by molar mass, not a printed value.

Legend:
E. coli PBP1b = E. coli PBP1b (Escherichia coli (strain K12), UniProt P02919); assay: Radioligand competition binding assay with 14C-labeled boronic acid probe, PBP1b
Excerpt: To determine the ability of boronic acid-based test PBP inhibitors to bind Penicillin Binding Proteins (PBPs), a radio-labelled boronic acid PBP inhibitor
[drawing 751] was used in competition binding assays to determine boronic acid PBP inhibitor binding to PBP1a or PBP1b from Escherichia coli. PBP1a and PBP1b were purified as described previously (Bertsche, U.; et al., J. Biol. Chem. 2005, 280 (45), 38096-38101; Born, P.; et al., J. Biol. Chem. 2006. 281 (37), 26985-26993). To establish assay conditions for competition binding, an enzyme titration/saturation binding experiment was performed. Saturation binding was performed in a buffer comprised of 20 mM Tris (pH 7.5), 500 mM NaCl and 0.1% (v/v) TritonX-100, with PBP1a/PBP1b at a final concentration of 0.1 μM and Compound A at final concentrations ranging from 0-100 μM. Mixtures were incubated for 60 minutes, then applied to Zeba Spin Desalting columns or plates (ThermoFisher Scientific) and centrifuged at 1000-1500×g for 2 minutes. The flow through, containing PBP bound with Compound A, was recovered and 100 μL mixed with 5 mL of UltimaGold liquid scintillation cocktail (Perkin Elmer), and the radioactivity counted using a Beckman Coulter LS 6500 Multipurpose scintillation counter. PBP binding of Compound A approached saturation at 20 μM of ^14C-labeled probe. The competition binding assay was validated using the beta-lactam ampicillin, with Compound A at a final concentration of 20 μM, PBP1a/PBP1b at a final concentration of 0.1 μM. PBP1a/PBP1b was incubated with ampicillin in a 96-well microplate for 60 minutes, then Compound A was added and the mixtures incubated for an additional 60 minutes. The mixtures were then applied to Zeba Spin desalting plates and centrifuged at 1000×g for 2 minutes. The flow through was recovered and 100 μl mixed with 5 ml of UltimaGold liquid scintillation cocktail and the radioactivity counted. […] Binding assays with boronic acid PBP inhibitors were performed in an identical fashion. The potency of boronic acid PBP inhibitors was reported as the EC50 value.

E. coli AG100 = assay: Broth microdilution MIC, E. coli AG100 (wild-type parent); format: cell-based; details: Escherichia coli; wild-type parent E. coli AG100, broth microdilution; read-out: MIC E. coli AG100
Outline: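 Broth microdilution in cation-supplemented Mueller-Hinton broth, 2-fold serial compound dilutions, inoculum 5×10^5 CFU/mL from 3-5 h log culture.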

K. pneumoniae 848844 = assay: microbe, parasite or virus in culture; format: cell-based, Klebsiella pneumoniae; details: Klebsiella pneumoniae; K. pneumoniae 848844 producing SHV-11 and KPC-2; read-out: MIC K. pneumoniae 848844
Outline: (§1)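 MIC = lowest concentration showing no visible growth after 16-20 h at 37° C. Cation-adjusted MH broth, 2-fold serial dilutions, starting inoculum 5×10^5 CFU/mL, per CLSI methods.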

E. coli PBP3 = E. coli PBP3 (Escherichia coli (strain K12), UniProt P0AD68); assay: E. coli PBP3 Bocillin-FL fluorescence polarization competition binding assay
Sequence of E. coli PBP3 (P0AD68 whole entry): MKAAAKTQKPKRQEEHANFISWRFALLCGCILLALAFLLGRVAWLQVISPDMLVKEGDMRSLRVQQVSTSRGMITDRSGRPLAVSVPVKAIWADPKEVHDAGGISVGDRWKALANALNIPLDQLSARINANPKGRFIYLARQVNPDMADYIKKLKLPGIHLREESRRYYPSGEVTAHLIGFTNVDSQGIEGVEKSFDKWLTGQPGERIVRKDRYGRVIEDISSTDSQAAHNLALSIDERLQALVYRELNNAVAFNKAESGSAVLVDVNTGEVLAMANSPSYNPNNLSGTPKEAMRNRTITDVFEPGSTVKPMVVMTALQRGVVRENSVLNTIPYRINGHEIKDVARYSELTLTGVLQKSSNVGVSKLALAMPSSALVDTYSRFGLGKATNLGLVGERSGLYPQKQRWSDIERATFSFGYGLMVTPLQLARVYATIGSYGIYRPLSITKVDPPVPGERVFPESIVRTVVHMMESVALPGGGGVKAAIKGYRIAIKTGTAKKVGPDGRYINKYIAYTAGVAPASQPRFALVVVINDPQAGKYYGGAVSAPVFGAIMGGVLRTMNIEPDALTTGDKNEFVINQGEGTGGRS
Outline: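 Purified PBP (1.5 μM final) was combined with test compound (0–1000 μM) and Bocillin-FL (fluorescent penicillin V, 0.1 μM final) in 50 mM Hepes pH 8.0, 300 mM NaCl, 5% glycerol.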

E. coli ATCC 25922 = assay: Broth microdilution MIC, E. coli ATCC 25922; format: cell-based; details: Escherichia coli, ATCC25922; E. coli ATCC 25922, broth microdilution; read-out: MIC E. coli 25922
Outline: as §1

E. coli 901C = assay: microbe, parasite or virus in culture; format: cell-based; details: Escherichia coli; hyper-permeable E. coli 901C, broth microdilution; read-out: MIC E. coli 901C
Outline: as §1

K. pneumoniae UMM = assay: microbe, parasite or virus in culture; format: cell-based; details: Klebsiella pneumoniae; K. pneumoniae UMM producing SHV-5 and KPC-2; read-out: MIC K. pneumoniae UMM
Outline: as §1

K. pneumoniae SI-117 = assay: microbe, parasite or virus in culture; format: cell-based; details: Klebsiella pneumoniae, SI117, read-out: MIC K. pneumoniae SI-117
Outline: as §1

E. coli AG100A = assay: microbe, parasite or virus in culture; format: cell-based; details: Escherichia coli, read-out: MIC E. coli AG100A
Outline: as §1

E. coli D22 = assay: microbe, parasite or virus in culture; format: cell-based; details: Escherichia coli; hyper-permeable E. coli D22, broth microdilution; read-out: MIC E. coli D22
Outline: as §1

[1] = test system: engineered strain of Escherichia coli harboring CTX-M15; assay: microbe, parasite or virus in culture; format: cell-based; details: Escherichia coli, read-out: Microbiological Activity (MIC in mg/L), E. coli DH5α/pLBII-CTX-M15, engineered strain producing CTX-M15

Sequence of E. coli PBP1b (P02919 whole entry): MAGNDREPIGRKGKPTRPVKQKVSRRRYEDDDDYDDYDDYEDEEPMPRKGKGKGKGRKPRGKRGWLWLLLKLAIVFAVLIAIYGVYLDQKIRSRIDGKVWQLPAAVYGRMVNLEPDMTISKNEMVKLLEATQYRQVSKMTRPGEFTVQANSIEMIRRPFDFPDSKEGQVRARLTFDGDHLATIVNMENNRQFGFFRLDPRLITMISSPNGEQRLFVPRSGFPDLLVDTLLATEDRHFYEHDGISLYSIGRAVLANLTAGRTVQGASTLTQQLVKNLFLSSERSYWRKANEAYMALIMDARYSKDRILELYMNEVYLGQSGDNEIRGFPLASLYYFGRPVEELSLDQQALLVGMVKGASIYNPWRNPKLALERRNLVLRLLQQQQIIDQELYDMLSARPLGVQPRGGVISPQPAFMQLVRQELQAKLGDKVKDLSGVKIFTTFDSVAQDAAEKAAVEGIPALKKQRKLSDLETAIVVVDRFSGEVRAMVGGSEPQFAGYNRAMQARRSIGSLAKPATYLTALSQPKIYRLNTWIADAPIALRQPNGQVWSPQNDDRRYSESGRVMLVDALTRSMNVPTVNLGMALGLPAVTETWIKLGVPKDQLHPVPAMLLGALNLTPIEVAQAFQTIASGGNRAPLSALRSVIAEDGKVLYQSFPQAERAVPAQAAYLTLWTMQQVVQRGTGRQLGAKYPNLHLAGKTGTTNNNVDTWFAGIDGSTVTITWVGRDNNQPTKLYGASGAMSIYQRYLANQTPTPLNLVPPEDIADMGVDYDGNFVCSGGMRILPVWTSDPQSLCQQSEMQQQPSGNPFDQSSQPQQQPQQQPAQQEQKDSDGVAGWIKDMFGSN

| Structure (SMILES) | EC50 (E. coli PBP1b) [µM] | MIC (E. coli AG100) [µg/mL] | MIC (K. pneumoniae 848844) [µg/mL] | EC50 (E. coli PBP3) [µM] | MIC (E. coli ATCC 25922) [µg/mL] | MIC (E. coli 901C) [µg/mL] | MIC (K. pneumoniae UMM) [µg/mL] | MIC (K. pneumoniae SI-117) [µg/mL] | MIC (E. coli AG100A) [µg/mL] | MIC (E. coli D22) [µg/mL] | MIC [1] [mg/L] |
| --- | --- | --- | --- | --- | --- | --- | --- | --- | --- | --- | --- |
| CCN1CCN(C(=O)NC(C(=O)N[C@H]2Cc3cccc(C(=O)O)c3OB2O)c2cccnc2)C(=O)C1=O (stereo partly drawn) [Example 105, (3R)-3-(2-(4-ethyl-2,3-dioxopiperazine-1-carboxamido)-2-(pyridin-3-yl)acetamido)-2-hydroxy-3,4-dihydro-2H-benzo[e][1,2]oxaborinine-8-carboxylic acid] | > 100 | 32 to 64 | > 128 | 30 to 500 | 32 to 64 | < 0.25 | 32 to 64 | > 128 | 2 to 4 | 8 to 16 | 32 to 64 (≈ 62.8 to 126 µM) |
| CCN1CCN(C(=O)NC(C(=O)N[C@H]2Cc3cccc(C(=O)O)c3OB2O)c2ccc[n+](CC(=O)[O-])c2)C(=O)C1=O (stereo partly drawn) [Example 108, 2-(3-(2-(((R)-8-carboxy-2-hydroxy-3,4-dihydro-2H-benzo[e][1,2]oxaborinin-3-yl)amino)-1-(4-ethyl-2,3-dioxopiperazine-1-carboxamido)-2-oxoethyl)pyridin-1-ium-1-yl)acetate] | 10 to 100 | > 128 | > 128 | 30 to 500 | 32 to 64 | 8 to 16 | 32 to 64 | > 128 | 32 to 64 | 8 to 16 | 32 to 64 (≈ 56.4 to 113 µM) |
| CCN1CCN(C(=O)NC(C(=O)N[C@H]2Cc3cccc(C(=O)O)c3OB2O)c2ncccn2)C(=O)C1=O (stereo partly drawn) [Example 111, (3R)-3-(2-(4-ethyl-2,3-dioxopiperazine-1-carboxamido)-2-(pyrimidin-2-yl)acetamido)-2-hydroxy-3,4-dihydro-2H-benzo[e][1,2]oxaborinine-8-carboxylic acid] | > 100 | 32 to 64 | > 128 | 30 to 500 | 32 to 64 | 0.5 to 1 | 32 to 64 | > 128 | 2 to 4 | 8 to 16 | 32 to 64 (≈ 62.7 to 125 µM) |
